Measurements: patent USRE38963E1, “Pyrazoline derivatives, their preparation and application as medicaments” (Laboratorios del Dr. Esteve, priority 1998, dated 2006)
Read-outs that look alike come from different tables or passages of the source.

Key:
gastric ulcers in rats = assay: Gastrointestinal effects: induction of ulcers in rats submitted to cold stress; type: in vivo; details: rat, po; for Maximum non-Ulcerogenic dose: linear regression of dose-response
Protocol: Gastrointestinal Effects (GI): Induction of Ulcers in Rats Submitted to Cold Stress
In this assay possible ulcerogenic effects at a gastrointestinal level were determined after oral administration. […] Firstly the rats received the products under study orally at different doses. After two hours had elapsed the rats were placed in a chest freezer at −15° C. for 1 hour. Afterwards they were left for 1 hour at room temperature The animals were then sacrificed and the stomach extracted. The stomach was kept in saline solution for 15 minutes After this time the percentage of surface area with gastric ulcers was determined using a Project C.S.V. vs 1.2 image analyser for each stomach.

[1] = test system: COX-1 (PGE2 in gastric mucus); assay: Inhibition of the synthesis of prostaglandins (PGE2) in gastric mucus in rat; type: in vivo; details: for inhibition at 40 mg/kg: read-out: Inhibition of PGE2, Gastric mucus; for ED50: read-out: ED-50, Inhibition of PGE2, Gastric mucus
Protocol: (§1) Inhibition of the Synthesis of Prostaglandins in Inflammatory Exudate and Mucus Membrane in Rat
(§2) The products under study are administered orally at an initial screening dose of 40 mg/kg One hour after treatment the rats were anaesthetised and a sponge soaked in carrageenan was implanted subcutaneously in the interscapular zone. Six hours after implantation the rats were sacrificed and the interscapular sponges extracted as well as gastric mucuous. Next the PGE2 content was determined by immunoassay for each one of the samples, in the sponge exudate on the one hand and in the gastric mucus on the other.

[2] = test system: COX-2/COX-1 (PGE2 in inflammatory exudate); assay: Inhibition of the synthesis of prostaglandins (PGE2) in inflammatory exudate in rat, carrageenan sponge; type: in vivo; details: for inhibition at 40 mg/kg: read-out: Inhibition of PGE2, Inflammatory exudate; for ED50: read-out: ED-50, Inhibition of PGE2, Inflammatory exudate
Protocol: as §1, §2

[3] = test system: secondary inflammation of paw (experimental arthritis); assay: Anti-arthritic activity in rat (Freund adjuvant); type: in vivo; details: 10 mg/kg/day po for 11 days
Protocol: Anti-arthritic Activity in Rat
In this study the anti-arthritic activity in rat of the compound of example 3 has been studied. To do so the method described by B. J. Jaffee et al. (Agents and Actions, 1989, 27, 344-346) was followed. Firstly, the Freund adjuvant was injected (Mycobacterium butiricum suspended in soy-bean oil) through the sub-sole of the back left paw of the rats. After 14 days, when the secondary inflammation had developed in the uninjected paw, which is considered the experimental arthritis, treatment with the product under study or with the vehicle for the control group was started. The compound of example 3 was administered orally at a dose of 10 mg/kg/day for 11 days. The volume of the paw with secondary inflammation in the last days of treatment was measured. The anti-arthritic activity was calculated by comparing the average volume of the paw with secondary inflammation of the group treated with the compound of example 3 and the control group for 5 days.

[4] = test system: carrageenan pre-inflamed rat paw; assay: Analgesic activity against hyperalgesia by thermal stimulus of pre-inflamed rat paw; type: in vivo; details: for % Activity, analgesic activity against hyperalgesia by thermal stimulus: dose 40 mg/kg po, 2 h after treatment; for ED50: po, read-out: ED-50 of analgesic activity against hyperalgesia by thermal stimulus
Protocol: Analgesic Activity Against “Hyperalgesia” by Thermal Stimulus of Pre-inflamed Rat Paw
In this assay the analgesic activity in rat was monitored following the method described by K. Hargreaves et al. (Pain, 1988, 32, 77-78). Firstly, a suspension of carrageenan was injected into the back right paw of each rat. After two hours the products under study were administered orally at a screening dose of 40 mg/kg. Two hours after treatment a heat source was applied to the sole of each back paw of the rats and the time measured that they took to remove the paw measured. Hyperalgesia was determined by comparing the percentage of algesia of the paw injected with carrageenan to the other back paw. The analgesic activity was calculated comparing these hyperalgesia values of the groups treated with product with those of the group treated with the vehicle only.

SMILES: O=C(O)Cc1ccccc1Nc1c(Cl)cccc1Cl [Dichlophenac]
- Ulcerogenic effects (in words) (gastric ulcers in rats; cold stress): exhibited ulcerogenic effects at very low doses
- Maximum non-Ulcerogenic dose (gastric ulcers in rats; cold stress): 1.2 mg/kg

SMILES: Cc1ccc(C2CC(C(F)(F)F)=NN2c2ccc(S(N)(=O)=O)cc2)cc1 (centres unmarked) [Example 1, 1-(4-Aminosulphonylphenyl)-4,5-dihydro-5-(4-metylphenyl)-3-trifluoromethyl-1H-pyrazole]
- melting point: 140 to 143 °C

SMILES: CC1(c2ccccc2)CC(C(F)(F)F)=NN1c1ccc(S(N)(=O)=O)cc1 (centres unmarked) [Example 2, 1-(4-Aminosulphonylphenyl)-4,5-dihydro-5-phenyl-5-methyl-3-trifluoromethyl-1H-pyrazole]
- melting point: 60 to 66 °C

SMILES: NS(=O)(=O)c1ccc(N2N=C(C(F)(F)F)CC2c2ccc(F)cc2F)cc1 (centres unmarked) [Example 3, 1-(4-aminosulphonylphenyl)-5-(2,4-difluorophenyl)-4,5-dihydro-3-trifluoro methyl-1H-pyrazole]
- inhibition at 40 mg/kg ([1]; rat, dose 40 mg/kg po): 0%
- ED50 ([1]; rat, po): > 40 mg/kg
- Ulcerogenic effects (in words) (gastric ulcers in rats; in vivo): not to have ulcerogenic effects, even at very high doses
- Maximum non-Ulcerogenic dose (gastric ulcers in rats; cold stress): >80 mg/kg
- inhibition at 40 mg/kg ([2]; rat, dose 40 mg/kg po): 92%
- ED50 ([2]; rat, po): 36 mg/kg
- Inhibition of secondary inflammation (anti-arthritic activity) [3]: 71%
- % Activity, analgesic activity against hyperalgesia by thermal stimulus [4]: 100%
- ED50 [4]: 0.2 mg/kg

SMILES: COC(=O)C1=NN(c2ccc(S(C)(=O)=O)cc2)C(c2ccc(C)cc2)C1 (centres unmarked) [Example 5, methyl 4,5-dihydro-5-(4-methylphenyl)-1-(4-methylsulphonylphenyl)-1H-pyrazole-3-carboxylate]
- melting point: 156 to 157 °C

SMILES: Cc1ccc(C2CC(C(N)=O)=NN2c2ccc(S(N)(=O)=O)cc2)cc1 (centres unmarked) [Example 6, 1-(4-aminosulphonylphenyl)-4,5-dihydro-5-(4-methylphenyl)-1H-pyrazole-3-carboxamide]
- melting point: 137 to 140 °C

SMILES: Cc1ccc(C2CC(C#N)=NN2c2ccc(S(C)(=O)=O)cc2)cc1 (centres unmarked) [Example 7, 3-cyano-4,5-dihydro-5-(4-methylphenyl)-1-(4-methylsulphonylphenyl)-1H-pyrazole]
- melting point: 115 to 119 °C

SMILES: CC(=O)NS(=O)(=O)c1ccc(N2N=C(C(F)(F)F)CC2c2ccc(F)cc2F)cc1 (centres unmarked) [Example 8, 1-(4-acetylaminosulphonylphenyl)-5-(2,4-difluorophenyl)-4,5-dihydro-3-trifluoromethyl-1H-pyrazole]
- melting point: 154 to 156 °C

SMILES: Cc1ccc(C2CC(C(=O)O)=NN2c2ccc(S(N)(=O)=O)cc2)cc1 (centres unmarked) [Example 34, 1-(4-aminosulphonylphenyl)-4,5-dihydro-5-(4-methylphenyl)-1H-pyrazole-3-carboxylic acid]
- melting point: 172 to 176 °C

SMILES: COC(=O)C1=NN(c2ccc(S(C)(=O)=O)cc2)C(c2ccc(C)cc2)C1 (centres unmarked) [Example 39, methyl 4,5-dihydro-5-(4-methylphenyl)-1-(4-methylsulphonylphenyl)-1H-pyrazole-3-carboxylate]
- melting point: 155 to 160 °C

SMILES: Cc1ccc(C2CC(C(N)=O)=NN2c2ccc(S(N)(=O)=O)cc2)cc1 (centres unmarked) [Example 41, 1-(4-aminosulphonylphenyl)-4,5-dihydro-5-(4-methylphenyl)-1H-pyrazole-3-carboxamide]
- melting point: 210 to 215 °C

SMILES: Cc1ccc(C2CC(C(N)=O)=NN2c2ccc(S(C)(=O)=O)cc2)cc1 (centres unmarked) [Example 42, 4,5-dihydro-5-(4-methylphenyl)-1-(4-methylsulphonylphenyl)-1H-pyrazole-3-carboxamide]
- melting point: 128 to 132 °C

SMILES: Cc1ccc(C2CC(C#N)=NN2c2ccc(S(C)(=O)=O)cc2)cc1 (centres unmarked) [Example 43, 3-cyano-4,5-dihydro-5-(4-methylphenyl)-1-(4-methylsulphonylphenyl)-1H-pyrazole]
- melting point: 162 to 164 °C

SMILES: CC(=O)NS(=O)(=O)c1ccc(N2N=C(C(F)(F)F)CC2c2ccc(F)cc2F)cc1 (centres unmarked) [Example 64, 1-(4-acetylaminosulphonylphenyl)-5-(2,4-difluorophenyl)-4,5-dihydro-3-trifluoromethyl-1H-pyrazole]
- melting point: 172 to 174 °C

SMILES: Cc1cnc(NC(=O)C2=C(O)c3ccccc3S(=O)(=O)N2C)s1 [Meloxicam]
- inhibition at 40 mg/kg ([1]; Rattus norvegicus, po): 65%
- inhibition at 40 mg/kg ([2]; Rattus norvegicus, po): 97%

SMILES: COc1ccc2cc(CCC(C)=O)ccc2c1 [Nabumetone]
- inhibition at 40 mg/kg ([1]; rat, dose 40 mg/kg po): 0%
- ED50 ([1]; rat, po): > 40 mg/kg
- inhibition at 40 mg/kg ([2]; rat, dose 40 mg/kg po): 93%
- ED50 ([2]; rat, po): 110 mg/kg
- % Activity, analgesic activity against hyperalgesia by thermal stimulus [4]: 95%
- ED50 [4]: 2.1 mg/kg

SMILES: CS(=O)(=O)Nc1ccc([N+](=O)[O-])cc1Oc1ccccc1 [Nimesulide]
- % Activity, analgesic activity against hyperalgesia by thermal stimulus [4]: 97%
- ED50 [4]: 1 mg/kg

SMILES: CN1C(C(=O)Nc2ccccn2)=C(O)c2ccccc2S1(=O)=O [Piroxicam]
- Ulcerogenic effects (in words) (gastric ulcers in rats; in vivo): exhibited ulcerogenic effects at very low doses
- Maximum non-Ulcerogenic dose (gastric ulcers in rats; cold stress): 1.7 mg/kg
